Source: US20230203060A1 (GENFLEET THERAPEUTICS (SHANGHAI) INC., priority 2020, published 2023)

System: KRAS G12C mutant NCI-H358 cells
Experiment: Cell proliferation inhibition experiment, 3D spheroid, CellTiter-Glo, NCI-H358
Assay type: cell-based, human
Conditions: Homo sapiens, NCI-H358, 120 h, NCI-H358 (KRAS G12C mutant) 3D spheroid, 5 days with compound, CellTiter-Glo; read-out: H358 IC50
Procedure, shortened: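 3D spheroid format; 800 H358 / 400 A549 cells/well, 2% FBS. Cpd 3.16-fold series, 0.1% DMSO, 5 d. Readout CellTiter-Glo luminescence; IR% vs DMSO control and medium blank; 4-parameter IC50.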

IC50	Compound
0.8 nM	C=CC(=O)N1CCN2C(=O)c3c(N4CCC(OC)C4(C)C)nc(-c4c(N)cccc4F)c(Cl)c3OC[C@H]2C1 (stereo partly drawn) [Z506, (6aR)-8-acryloyl-3-(2-amino-6-fluorophenyl)-4-chloro-1-(3-methoxy-2,2-dimethylpyrrolidin-1-yl)-6,6a,7,8,9,10-hexahydro-12H-pyrazino[2,1-c]pyrido[3,4-f][1,4]oxazepin-12-one]
2 nM	C=CC(=O)N1CCN2C(=O)c3c(N4CC(N5CCN(C)CC5)CC4(C)C)nc(-c4ccccc4F)c(Cl)c3OC[C@H]2C1 (stereo partly drawn) [Z454, (6aR)-8-acryloyl-4-chloro-1-(2,2-dimethyl-4-(4-methylpiperazin-1-yl)pyrrolidin-1-yl)-3-(2-fluorophenyl)-6,6a,7,8,9,10-hexahydro-12H-pyrazino[2,1-c]pyrido[3,4-f][1,4]oxazepin-12-one]
144 nM	C=CC(=O)N1CCN2C(=O)c3c(N4C[C@@H](C)N(C)C[C@@H]4C)nc(-c4ccccc4F)c(Cl)c3OC[C@H]2C1 [Z464]
27.5 nM	C=CC(=O)N1CCN2C(=O)c3c(N4CCN(C)[C@@H](C)[C@@H]4C)nc(-c4ccccc4F)c(Cl)c3OC[C@H]2C1 [Z653, (R)-8-acryloyl-4-chloro-3-(2-fluorophenyl)-1-((2S,3S)-2,3,4-trimethylpiperazin-1-yl)-6,6a,7,8,9,10-hexahydro-12H-pyrazino[2,1-c]pyrido[3,4-f][1,4]oxazepin-12 (6aH)-one]
17 nM	C=CC(=O)N1CCN2C(=O)c3c(N4CCCC45CC5)nc(-c4c(O)cccc4F)c(Cl)c3OC[C@H]2C1 [Z56, (6aR)-8-acryloyl-4-chloro-3-(2-fluoro-6-hydroxyphenyl)-1-(4-azaspiro[2.4]heptan-4-yl)-6,6a,7,8,9,10-hexahydro-12H-pyrazino[2,1-c]pyrido[3,4-f][1,4]oxazepin-12-one]
2 nM	C=CC(=O)N1CCN2C(=O)c3c(N4C[C@H](N5CCN(C)CC5)CC4(C)C)nc(-c4c(O)cccc4F)c(Cl)c3OC[C@H]2C1 (single isomer, unassigned) [Z469-2]
91 nM	C=CC(=O)N1CCN2C(=O)c3c(N4C[C@H](N5CCC5)CC4(C)C)nc(-c4ccccc4F)c(Cl)c3OC[C@H]2C1 (single isomer, unassigned) [Z471-2]
29.6 nM	C=CC(=O)N1CCN2C(=O)c3c(N4CC[C@@H](N(C)C)C4(C)C)nc(-c4ccccc4F)c(Cl)c3OC[C@H]2C1 [Z502-1, (6aR)-8-acryloyl-4-chloro-1-(3-(dimethylamino)-2,2-dimethylpyrrolidin-1-yl)-3-(2-fluorophenyl)-6,6a,7,8,9,10-hexahydro-12H-pyrazino[2,1-c]pyrido[3,4-f][1,4]oxazepin-12(6aH)-one]
4 nM	C=CC(=O)N1CCN2C(=O)c3c(N4CC(N5CCOCC5)CC4(C)C)nc(-c4ccccc4F)c(Cl)c3OC[C@H]2C1 (single isomer, unassigned) [Z468-1]
4 nM	C=CC(=O)N1CCN2C(=O)c3c(N4CCN(C)C[C@@H]4C)nc(-c4c(O)cccc4F)c(Cl)c3OC[C@H]2C1 [Z51, (6aR)-8-acryloyl-4-chloro-1-((S)-2,4-dimethylpiperazin-1-yl)-3-(2-fluoro-6-hydroxyphenyl)-6,6a,7,8,9,10-hexahydro-12H-pyrazino[2,1-c]pyrido[3,4-f][1,4]oxazepin-12-one]
15 nM	C=CC(=O)N1CCN2C(=O)c3c(N4C[C@H](N5CC(F)C5)CC4(C)C)nc(-c4ccccc4F)c(F)c3OC[C@H]2C1 [Z654-2, (R)-8-acryloyl-4-fluoro-1-((R)-4-(3-fluoroazetidin-1-yl)-2,2-dimethylpyrrolidin-1-yl)-3-(2-fluorophenyl)-6,6a,7,8,9,10-hexahydro-12H-pyrazino[2,1-c]pyrido[3,4-f][1,4]oxazepin-12-one]
3 nM	C=CC(=O)N1CCN2C(=O)c3c(N4C[C@@H](N5CCN(C)CC5)C[C@@H]4C)nc(-c4ccccc4F)c(Cl)c3OC[C@H]2C1 [Z470-2]
9 nM	C=CC(=O)N1CCN2C(=O)c3c(N4CCC5CC54)nc(-c4c(O)cccc4F)c(Cl)c3OC[C@H]2C1 (stereo partly drawn) [Z39, (6aR)-8-acryloyl-1-(2-azabicyclo[3.1.0]hexart-2-yl)-4-chloro-3-(2-fluoro-6-hydroxyphenyl)-6,6a,7,8,9,10-hexahydro-12H-pyrazino[2,1-c]pyrido[3,4-f][1,4]oxazepin-12-one]
19 nM	C=CC(=O)N1CCN2C(=O)c3c(N4CC(O)CC4(C)C)nc(-c4ccccc4Cl)c(F)c3OC[C@H]2C1 (stereo partly drawn) [Z414-1, (6aR)-8-acryloyl-3-(2-chlorophenyl)-4-fluoro-1-(4-hydroxy-2,2-dimethylpyrrolidin-1-yl)-6,6a,7,8,9,10-hexahydro-12H-pyrazino[2,1-c]pyrido[3,4-f][1,4]oxazepin-12-one]
9.5 nM	C=CC(=O)N1CCN2C(=O)c3c(N4CCN(C)C[C@@H]4C)nc(-c4c(N)cccc4F)c(Cl)c3OC[C@H]2C1 [Z503, (6aR)-8-acryloyl-3-(2-amino-6-fluorophenyl)-4-chloro-1-((S)-2,4-dimethylpiperazin-1-yl)-6,6a,7,8,9,10-hexahydro-12H-pyrazino[2,1-c]pyrido[3,4-f][1,4]oxazepin-12-one]
5.8 nM	C=CC(=O)N1CCN2C(=O)c3c(N4CC(N5CCC(F)(F)C5)CC4(C)C)nc(-c4ccccc4F)c(Cl)c3OC[C@H]2C1 (stereo partly drawn) [Z532, (6aR)-8-acryloyl-4-chloro-1-(3,3-difluoro-5′,5′-dimethyl-[1,3′-bipyrrolidin]-1′-yl)-3-(2-fluorophenyl)-6,6a,7,8,9,10-hexahydro-12H-pyrazino[2,1-c]pyrido[3,4-f][1,4]oxazepin-12-one]
19.3 nM	C=CC(=O)N1CCN2C(=O)c3c(N4CCN(C)C[C@@H]4C)nc(-c4c(F)cccc4Cl)c(Cl)c3OC[C@H]2C1 [Z547, (6aR)-8-acryloyl-4-chloro-3-(2-chloro-6-fluorophenyl)-1-((S)-2,4-dimethylpiperazin-1-yl)-6,6a,7,8,9,10-hexahydro-12H-pyrazino[2,1-c]pyrido[3,4-f][1,4]oxazepin-12-one]

IC50	Compound
5 nM	C=CC(=O)N1CCN2C(=O)c3c(N4C[C@@H](N(C)CC(F)F)CC4(C)C)nc(-c4ccccc4F)c(Cl)c3OC[C@H]2C1 (single isomer, unassigned) [Z659-1]
13 nM	C=CC(=O)N1CCN2C(=O)c3c(N4CCN(C)[C@@H](C)[C@H]4C)nc(-c4ccccc4F)c(Cl)c3OC[C@H]2C1 (single isomer, unassigned) [Z465-1]
8.3 nM	C=CC(=O)N1CCN2C(=O)c3c(N4C[C@@H](N5CCN(C)CC5)CC4(C)C)nc(-c4ccccc4F)c(F)c3OC[C@H]2C1 (single isomer, unassigned) [Z474-1]
8 nM	C=CC(=O)N1CCN2C(=O)c3c(N4C[C@H](N(C)C)CC4(C)C)nc(-c4cccc(C)c4F)c(Cl)c3OC[C@H]2C1 (single isomer, unassigned) [Z472-2]
16.6 nM	C=CC(=O)N1CCN2C(=O)c3c(N4CC(N(C)C)CC4(C)C)nc(-c4ccccc4F)c(Cl)c3OC[C@H]2C1 (single isomer, unassigned) [Z453-2]
8 nM	C=CC(=O)N1CCN2C(=O)c3c(N4C[C@H](N(C)C)CC4(C)C)nc(-c4c(F)ccc(F)c4O)c(Cl)c3OC[C@H]2C1 (single isomer, unassigned) [Z475-2]
11 nM	C=CC(=O)N1CCN2C(=O)c3c(N4CC[C@H](N(C)C)C4(C)C)nc(-c4ccccc4F)c(Cl)c3OC[C@H]2C1 [Z502-2, (6aR)-8-acryloyl-4-chloro-1-(3-(dimethylamino)-2,2-dimethylpyrrolidin-1-yl)-3-(2-fluorophenyl)-6,6a,7,8,9,10-hexahydro-12H-pyrazino[2,1-c]pyrido[3,4-f][1,4]oxazepin-12(6aH)-one]
0.8 nM	C=CC(=O)N1CCN2C(=O)c3c(N4C[C@@H](N5CCN(C)CC5)CC4(C)C)nc(-c4c(F)cccc4Cl)c(Cl)c3OC[C@H]2C1 (single isomer, unassigned) [Z635-1]
1.2 nM	C=CC(=O)N1CCN2C(=O)c3c(N4C[C@@H](N5CCN(C)CC5)CC4(C)C)nc(-c4ccccc4F)c(Cl)c3OC[C@H]2C1 (single isomer, unassigned) [Z454-1]
23 nM	C=CC(=O)N1CCN2C(=O)c3c(N4C[C@H](N5CCN(C)CC5)C[C@@H]4C)nc(-c4ccccc4F)c(Cl)c3OC[C@H]2C1 [Z470-1]
12 nM	C=CC(=O)N1CCN2C(=O)c3c(N4CC(N(C)C)CC4(C)C)nc(-c4cccc(F)c4F)c(Cl)c3OC[C@H]2C1 (single isomer, unassigned) [Z473-2]
12.4 nM	C=CC(=O)N1CCN2C(=O)c3c(N4CCC[C@@]4(C)C(=O)NC)nc(-c4c(O)cccc4F)c(Cl)c3OC[C@H]2C1 [Z462, (2S)-1-((6aR)-8-acryloyl-4-chloro-3-(2-fluoro-6-hydroxyphenyl)-12-oxo-6,6a,7,8,9,10-hexahydro-12H-pyrazino[2,1-c]pyrido[3,4-f][1,4]oxazepin-1-yl)-N,2-dimethylpyrrolidine-2-carboxamide]
6 nM	C=CC(=O)N1CCN2C(=O)c3c(N4C[C@@H](NC)CC4(C)C)nc(-c4ccccc4F)c(Cl)c3OC[C@H]2C1 (single isomer, unassigned) [Z661-1]
305 nM	C=CC(=O)N1CCN2C(=O)c3c(N4CC(C(=O)O)CC4(C)C)nc(-c4c(O)cccc4F)c(Cl)c3OC[C@H]2C1 (stereo partly drawn) [Z458, 1-((6aR)-8-acryloyl-4-chloro-3-(2-fluoro-6-hydroxyphenyl)-12-oxo-6,6a,7,8,9,10-hexahydro-12H-pyrazino[2,1-c]pyrido[3,4-f][1,4]oxazepin-1-yl)-5,5-dimethylpyrrolidine-3-carboxylic acid]
4 nM	C=CC(=O)N1CCN2C(=O)c3c(N4CC(NC)CC4(C)C)nc(-c4ccccc4F)c(Cl)c3OC[C@H]2C1 (stereo partly drawn) [Z661, (6aR)-8-acryloyl-4-chloro-1-(2,2-dimethyl-4-(methylamino)pyrrolidin-1-yl)-3-(2-fluorophenyl)-6,6a,7,8,9,10-hexahydro-12H-pyrazino[2,1-c]pyrido[3,4-f][1,4]oxazepin-12-one]
1 nM	C=CC(=O)N1CCN2C(=O)c3c(N4CC(N(C)CC(F)F)CC4(C)C)nc(-c4ccccc4F)c(Cl)c3OCC2C1 (single isomer, unassigned) [Z659-2]
